In general, IC50 refers to the concentration that inhibits the measured activity by half.

For the experiment, the target named is T1, human MCH receptor (Homo sapiens, UniProt Q99705).
T1 construct: expressed in transfected cells
T1 sequence (Q99705 whole entry): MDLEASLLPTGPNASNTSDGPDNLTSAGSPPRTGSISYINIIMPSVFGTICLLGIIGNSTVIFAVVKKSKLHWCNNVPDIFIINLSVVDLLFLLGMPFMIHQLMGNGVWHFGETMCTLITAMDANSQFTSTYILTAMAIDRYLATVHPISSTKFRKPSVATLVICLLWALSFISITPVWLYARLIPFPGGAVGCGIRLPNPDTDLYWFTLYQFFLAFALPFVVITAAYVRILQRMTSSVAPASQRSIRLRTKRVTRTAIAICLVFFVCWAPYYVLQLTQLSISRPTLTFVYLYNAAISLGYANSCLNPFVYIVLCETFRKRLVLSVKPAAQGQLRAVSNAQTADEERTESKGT
The experiment is described as follows: calcium mobilization assay (FLIPR); functional IC50 of MCH1R antagonists. The experiment is classed as cell-based. Particulars: recombinant HEK293 cell line expressing human MCH receptor; calcium flux after addition of agonist MCH. From the text:
Influence on the MCH Receptor In Vitro; Determination of Functional IC50 Values of MCH1R Antagonists
Cloning of the cDNA for the human MCH receptor, preparation of a recombinant HEK293 cell line which expresses the human MCH receptor, and functional measurements with the recombinant cell line took place in analogy to the description by Audinot et al. (J. Biol. Chem. 2001, 276, 13554-13562). A difference from the reference was, however, the use of the plasmid pEAK8 from EDGE Biosystems (USA) for the construction of the expression vector. The host used for the transfection was a transformed HEK cell line named “PEAK Stable Cells” (likewise from EDGE Biosystems). Functional measurements of the cellular calcium flux after addition of agonist (MCH) in the presence of ligand of the invention took place with the aid of the FLIPR apparatus from Molecular Devices (USA), using protocols of the apparatus manufacturer. The compounds of the invention show a significant inhibition (>30%) of the signal induced by the agonist at a concentration of 100 μM, preferably at 10 μM, particularly preferably at 1 μM, very particularly preferably at 100 nM and very very particularly preferably at 10 nM.
As for `CN(C(=O)c1ccc(OC[C@@H]2CCCO2)cc1)[C@H]1CCc2cc(CN3CCCC3)ccc2C1` [Example 2, N-Methyl-N-((S)-6-pyrrolidin-1-ylmethyl-1,2,3,4-tetrahydronaphthalen-2-yl)-4-[(S)-1-(tetrahydrofuran-2-yl)methoxy]benzamide], the 50% inhibitory concentration (IC50) was 670 nM.

As for `O=C(N[C@@H]1CCc2cc(CN3CCCC3)ccc2C1)c1ccc(OC[C@@H]2CCCO2)cc1` [Example 3-2], the IC50 is 3290 nM.

With `O=C(N[C@H]1CCc2cc(CN3CC4CCCC4C3)ccc2C1)c1ccc(OC[C@@H]2CCCO2)cc1` (stereo partly drawn) [Example 3-14], the half-inhibitory concentration (IC50) turned out to be 100 nM.

Turning to `COC(=O)CNCc1ccc2c(c1)CC[C@H](NC(=O)c1ccc(OC[C@@H]3CCCO3)cc1)C2` [Example 3-26], the 50% inhibitory concentration (IC50) is 360 nM.

As to `O=C(N[C@H]1CCc2cc(CNCCCn3ccnc3)ccc2C1)c1ccc(OC[C@@H]2CCCO2)cc1` [Example 3-32], the 50% inhibitory concentration (IC50) was found to be 130 nM.

With `O=C(N[C@H]1CCc2cc(CNCCCN3CCCC3=O)ccc2C1)c1ccc(OC[C@@H]2CCCO2)cc1` [Example 3-33], the IC50 worked out at 270 nM.

In the case of `CN1CCN(Cc2ccc3c(c2)CC[C@H](NC(=O)c2ccc(OC[C@@H]4CCCO4)cc2)C3)CC1` [Example 3-37], the 50% inhibitory concentration (IC50) was 340 nM.

In the case of `O=C(N[C@H]1CCc2cc(CN3CCC(O)CC3)ccc2C1)c1ccc(OC[C@@H]2CCCO2)cc1` [Example 3-40], the IC50 is 180 nM.

In the case of `CC(=O)N1CCN(Cc2ccc3c(c2)CC[C@H](NC(=O)c2ccc(OC[C@@H]4CCCO4)cc2)C3)CC1` [Example 3-44], the IC50 stood at 310 nM.

For the molecule `O=C(N[C@H]1CCc2cc(CN3C[C@H]4CC[C@H](CC4)C3)ccc2C1)c1ccc(OC[C@@H]2CCCO2)cc1` [Example 3-48], the IC50 amounted to 210 nM.

`Cc1ccc(CNCc2ccc3c(c2)CC[C@H](NC(=O)c2ccc(OC[C@@H]4CCCO4)cc2)C3)o1` [Example 3-51]: the half-inhibitory concentration (IC50) was 190 nM.

In the case of `O=C(N[C@H]1CCc2cc(CNCC3OCCO3)ccc2C1)c1ccc(OC[C@@H]2CCCO2)cc1` [Example 3-61], the half-inhibitory concentration (IC50) is 300 nM.

For the molecule `CS(=O)(=O)CCNCc1ccc2c(c1)CC[C@H](NC(=O)c1ccc(OC[C@@H]3CCCO3)cc1)C2` [Example 3-64], the concentration for half-maximal inhibition (IC50) was 180 nM.

As to `Cc1cc(CNCc2ccc3c(c2)CC[C@H](NC(=O)c2ccc(OC[C@@H]4CCCO4)cc2)C3)no1` [Example 3-71], the concentration for half-maximal inhibition (IC50) was determined as 750 nM.

For the molecule `O=C1CN(Cc2ccc3c(c2)CC[C@H](NC(=O)c2ccc(OC[C@@H]4CCCO4)cc2)C3)CCN1` [Example 3-72], the IC50 stood at 1850 nM.

In the case of `O=C(N[C@H]1CCc2cc(CN3CCCOCC3)ccc2C1)c1ccc(OC[C@@H]2CCCO2)cc1` [Example 3-77], the half-inhibitory concentration (IC50) turned out to be 120 nM.

Consider `N#CC1CCN(Cc2ccc3c(c2)CC[C@H](NC(=O)c2ccc(OC[C@@H]4CCCO4)cc2)C3)CC1` [Example 3-84], for which the IC50 came out at 170 nM.

Consider `O=C(N[C@H]1CCc2cc(CN3CC[C@@H](F)C3)ccc2C1)c1ccc(OC[C@@H]2CCCO2)cc1` [Example 3-86], for which the IC50 came to 120 nM.

As for `O=C(N[C@H]1CCc2cc(CN3C[C@@H]4C[C@H]3CO4)ccc2C1)c1ccc(OC[C@@H]2CCCO2)cc1` [Example 3-100], the IC50 stood at 330 nM.

`COc1ccc(CNCc2ccc3c(c2)CC[C@H](NC(=O)c2ccc(OC[C@@H]4CCCO4)cc2)C3)cn1` [Example 3-103]: the concentration for half-maximal inhibition (IC50) was found to be 200 nM.

In the case of `O=C(N[C@H]1CCc2cc(CN3CCn4cnnc4C3)ccc2C1)c1ccc(OC[C@@H]2CCCO2)cc1` [Example 3-120], the IC50 is 2410 nM.

With `CC(C)(C)CNCCc1ccc2c(c1)CC[C@H](NC(=O)c1ccc(OC[C@@H]3CCCO3)cc1)C2` [Example 3-135], the 50% inhibitory concentration (IC50) was 150 nM.

For the molecule `O=C(N[C@H]1CCc2cc(CN3CCC4(CCCC4)C3)ccc2C1)c1ccc(OC[C@@H]2CCCO2)cc1` [Example 3-194], the 50% inhibitory concentration (IC50) was 90 nM.

With `CC1(CNCc2ccc3c(c2)CC[C@H](NC(=O)c2ccc(OC[C@@H]4CCCO4)cc2)C3)CCCC1` [Example 3-195], the half-maximal inhibitory concentration (IC50) stood at 110 nM.

Consider `CC(C)(C)CNC(C)(C)c1ccc2c(c1)CC[C@H](NC(=O)c1ccc(OC[C@@H]3CCCO3)cc1)C2` [Example 8-1, N-{(S)-6-[1-(2,2-Dimethylpropylamino)-1-methylethyl]-1,2,3,4-tetrahydro-naphthalen-2-yl}-4-[(S)-1-(tetrahydrofuran-2-yl)methoxy]benzamide], for which the IC50 came out at 240 nM.

`CC(C)CN1CCCC(c2ccc3c(c2)CC[C@H](NC(=O)c2ccc(OC[C@@H]4CCCO4)cc2)C3)C1` (stereo partly drawn) [Example 8-3]: the IC50 was 230 nM.

In the case of `CN1CCCCC1c1ccc2c(c1)CC[C@H](NC(=O)c1ccc(OC[C@@H]3CCCO3)cc1)C2` (stereo partly drawn) [Example 8-8], the IC50 was 180 nM.

As to `CC(C)CCN[C@H](C)c1ccc2c(c1)CC[C@H](NC(=O)c1ccc(OC[C@@H]3CCCO3)cc1)C2` [Example 8-16], the IC50 was 120 nM.

On to `O=C(N[C@H]1CCc2cc([C@@H]3CCCN(C4CCOCC4)C3)ccc2C1)c1ccc(OC[C@@H]2CCCO2)cc1` [Example 8-26], for which the IC50 was 230 nM.

For the molecule `CC1(COc2ccc(C(=O)N[C@H]3CCc4cc(CN5CCCCCC5)ccc4C3)cc2)COC1` [Example 9-2], the IC50 worked out at 1280 nM.

With `O=C(N[C@H]1CCc2cc(CN3CCCCCC3)ccc2C1)c1ccc(OCC2OCCO2)cc1` [Example 9-3], the IC50 was 170 nM.

With `O=C(N[C@H]1CCc2cc(CN3CCCCCC3)ccc2C1)c1ccc(OCC2CCOCC2)cc1` [Example 9-4], the IC50 came to 440 nM.

Take `O=C(N[C@H]1CCc2cc(CN3CCCCCC3)ccc2C1)c1ccc(OCC2CCCCO2)cc1` (stereo partly drawn) [Example 9-5]: the IC50 was determined as 310 nM.

Take `CC1CCN([C@H](C)c2ccc3c(c2)CC[C@H](NC(=O)c2ccc(OC[C@@H]4CCCO4)cc2)C3)CC1` [Example 10, N-{(S)-6-[(R)-1-(4-Methylpiperidin-1-yl)ethyl]-1,2,3,4-tetrahydronaphthalen-2-yl}-4-[(S)-1-(tetrahydrofuran-2-yl)methoxy]benzamide]: the IC50 is 110 nM.

Take `O=C(N[C@H]1CCc2cc(CN3CCCCCC3)ccc2C1)c1ccc(OC[C@@H]2CCCO2)c(F)c1` [Example 12, N-((S)-6-Azepan-1-ylmethyl-1,2,3,4-tetrahydronaphthalen-2-yl)-3-fluoro-4-[(S)-1-(tetrahydrofuran-2-yl)methoxy]benzamide]: the IC50 was found to be 300 nM.

With `COC1CCN(Cc2ccc3c(c2)CC[C@H](n2ccc4cc(OC[C@@H]5CCCO5)ccc4c2=O)C3)CC1` [Example 13, 2-[(S)-6-(4-Methoxypiperidin-1-ylmethyl)-1,2,3,4-tetrahydronaphthalen-2-yl]-6-[(S)-1-(tetrahydrofuran-2-yl)methoxy]-2H-isoquinolin-1-one], the half-maximal inhibitory concentration (IC50) was found to be 1400 nM.

The values are drawn from US8609731B2, “Substituted tetrahydronaphthalenes, process for the preparation thereof and the use thereof as medicaments” (SANOFI, priority 2007, dated 2013).
